Assay results from patent US4892740A, “Orally administrable pharmaceutical preparation of improved flavoring characteristics” (Taisho Pharmaceutical Co., Ltd., priority 1987, dated 1990).

Experiment: Blood concentration of TE-031 after oral administration to Beagle dogs (bioassay method)
Assay type: in vivo
Conditions: dog, male Beagle dogs
Description: Test Animals Five male Beagle dogs weighing 10 kg were used as experimental animals. Sample The pharmaceutical preparation obtained in Example 1 (coated particles containing 39% of TE-031 prepared by using AEA powder having an average particle diameter of 16 microns as the powder bed) was used in an amount of 100 mg as TE-031. Testing procedure The sample was orally administered together with water to the experimental animals, and the concentration of TE-031 in the blood was measured by the bioassay method. Then after a period of 10 days during which the sample was not administered, a capsule containing 100 mg of the bulk of TE-031 was orally administered as a control together with water. The concentration of TE-031 in the blood was likewise measured by bioassay.

For `CC[C@H]1OC(=O)[C@H](C)[C@@H](O[C@H]2C[C@@](C)(OC)[C@@H](O)[C@H](C)O2)[C@H](C)[C@@H](O[C@@H]2O[C@H](C)C[C@H](N(C)C)[C@H]2O)[C@](C)(OC)C[C@@H](C)C(=O)[C@H](C)[C@@H](O)[C@]1(C)O` [bulk, 6-O-methylerythromycin A], the AUC (100 mg as TE-031, read-out: area below the blood level curve) was 42400 ng·h/mL, the Cmax (100 mg as TE-031, read-out: maximum blood level) was 3060 ng/mL and the Tmax (100 mg as TE-031, read-out: time of highest blood level) was 2 h.
